From patent US4256760A, “Methods of treating mammals suffering from inflammation and pain” (Laboratorios Bago S.A., priority 1979, dated 1981)

Experiments:
[1] = Influence on the gastro-intestinal tract (ulceration of the gastric epithelium, Shay et al.); type: in vivo, male rats of Sprague Dawley strain
Experimental: Influence on the gastro-intestinal tract
Ten male rats of Sprague Dawley strain, weighing 200-300 g were used for each compound tested. According to the method of Shay et al. (Shay, H., Komapov, S. A., Feb. S. S., Meranir, D., Gruenstein, M. Siplet, H. Gastroenterology 5, 43, 1945), under anesthesia, the pylorus was ligated and 4 hours later test compounds were orally administered. The animal was sacrificed 1 hour after compound administration. The stomach was removed and examined for macroscopic damage. The ulceration of the gastric epithelium was evaluated by the following evaluation: 0=no hemorrhage sites; 1=some isolated hemmorrhagic sites; 2=redness of the gastric epithelium; 3=1 to 5 small ulcers with a diameter smaller than 3 mm; 4=many small ulcers; 5=ulcers--greater than 3 mm; 6=perforated ulcer.

[2] = prior art, cited from earlier work; for anti-inflammatory effect (known): administered to mammals
[3] = Anti-inflammatory activity (carrageenin induced edema test); type: in vivo, male rats of Spargue Dawley strain; details: for % Edema Inhibition, 1 hour / % Edema Inhibition, 3 hours / % Edema Inhibition, 5 hours: oral, 30 min before carrageenin, mg/kg: ASA 100, its ester 173, XAA 120, its ester 186, TAA 60, its ester 88; for % Edema Inhibition, 1 hour: 1 hour after carrageenin; for % Edema Inhibition, 3 hours: 3 hours after carrageenin; for % Edema Inhibition, 5 hours: 5 hours after carrageenin; for anti-inflammatory versus antinociceptive action (in words): conclusion
Experimental: Anti-inflammatory Activity (Carrageenin induced edema test)
Fifteen to twenty male rats of Spargue Dawley strain weighing 150-200 g, were employed for each compound tested. 0.1 ml of 1% carrageenin saline suspension was injected into the subplantar region of the right hind-paw. The test compounds were orally administered 30 minutes prior to the injection of carrageenin and the foot volume was determined 1,3 and 5 hours after the injection of carrageenin. The percent swelling in the foot was obtained by comparing the volume before and after the injection of carrageenin, and the rate of inhibition in the treated animals was calculated.

[4] = Analgesic activity, tail pressure test; type: in vivo, male mice of Rockland strain; details: oral; control (water) = 0; mg/kg: ASA 100, its ester 173, XAA 50, its ester 77, TAA 50, its ester 73.5
Experimental: Tail pressure test: Ten male mice of Rockland strain weighing 20-25 g were used for each compound tested. The response threshold on applying pressure to the tail was determined with an analgesy meter at 15 and 60 minutes after oral administration of the test compound. The pressure at which a struggle was elicited was read.

[5] = Analgesic activity, Randall-Selitto's test; type: in vivo, male mice of Rockland strain; details: oral, 30 min before carrageenin; control (water) = 0; mg/kg: ASA 100, its ester 173, XAA 50, its ester 77, TAA 50, its ester 73.5
Experimental: Randall-Selitto's method: Ten male mice of Rockland strain weighing 25 g were used for each compound tested. 0.1 ml of 1% carrageenin saline suspension was injected into the subplantar region of the right foot. The test compounds were orally administered 30 minutes before the injection. At hourly intervals for 3 hours after the carrageenin injection, the pain threshold for the inflammed feet was measured, determining the amount of pressure with an analgesy meter.

[6] = oral, pylorus ligated, 1 hour after administration, 0=no hemorrhage sites ... 6=perforated ulcer, control 3.0, mg/kg: phenylbutazone 75, ASA 100, its ester 173, XAA 120, its ester 186, TAA 60, its ester 88
[7] = oral, pylorus ligated, 1 hour after administration, versus control (distilled water) 3.0, doses as for Evaluation

Structure (SMILES)	Evaluation (ulceration of the gastric epithelium, score 0-6) [1, 6]	Increase (of ulceration evaluation) [1, 7]	anti-inflammatory effect (known) [2]	% Edema Inhibition, 1 hour [3]	% Edema Inhibition, 3 hours [3]	% Edema Inhibition, 5 hours [3]	Relative strength, Tail pressure test [4]	Relative strength, Randall-Selitto test [5]	analgesic effect (known) [2]	anti-inflammatory versus antinociceptive action (in words) [3]	Evaluation (ulceration of the gastric epithelium, score 0-6) ([1]; rat, in vivo, po)	Increase (of ulceration evaluation) ([1]; rat, in vivo, po)
Cc1cccc(Nc2ccccc2C(=O)O)c1C [N-(2',3'-xylyl) anthranylic acid (XAA), N (2',3'-dimethylphenyl) anthranylic acid]	4.2	1.2	known to have an anti-inflammatory effect	–	–	–	–	–	–	–	–	–
CCCCC1C(=O)N(c2ccccc2)N(c2ccccc2)C1=O [Phenylbutazone]	5.5	2.5	–	–	–	–	–	–	–	–	–	–
CC(=O)Oc1ccccc1C(=O)O [Acetylsalicylic acid (ASA), o-Acetylsalicylic acid]	4.1	1.1	–	3.8%	24.8%	25.3%	1.00	1.05	known to have an analgesic effect	–	–	–
CC(=O)Oc1ccccc1C(=O)OC1OC(=O)c2ccccc21 (centres unmarked) [Phthalidyl acetylsalicylate, Phthalydil o-acetylsalicylate]	3.0	–	–	10.2%	30.30%	31.0%	1.82	1.54	–	–	–	–
O=C(OC1OC(=O)c2ccccc21)c1ccccc1Nc1cccc(C(F)(F)F)c1 (centres unmarked) [Phthalydil N(3'-trifluoromethylphenyl) anthranylate]	3.5	0.5	–	35.4%	40.2%	37.4%	–	–	–	act as anti-inflammatory agents more tha as antinociceptive agents	–	–
O=C(O)c1cccnc1Nc1cccc(C(F)(F)F)c1 [2 (3'-trifluoromethyl) anilino) pyridine-3-carboxylic acids]	–	–	known to have an anti-inflammatory effect	–	–	–	–	–	–	–	–	–
Cc1cccc(Nc2ccccc2C(=O)OC2OC(=O)c3ccccc32)c1C (centres unmarked) [Phthalidyl N-(2',3'-xylyl) anthranylate, Phthalydil N(2',3'-xylyl) anthranylate]	3.3	0.3	–	27.4%	34.2%	30.4%	–	–	–	act as anti-inflammatory agents more tha as antinociceptive agents	–	–
O=C(O)c1ccccc1Nc1cccc(C(F)(F)F)c1 [N (3'-trifluoromethylphenyl) anthranylic acid]	–	–	known to have an anti-inflammatory effect	24.3%	29.3%	28.3%	–	–	–	–	4.9	1.9
